≈ marks a conversion by molar mass, not a printed value. One block for each compound: values may come before it. Calls of active or inactive are those of the source. The rule behind the calls is not given here. Where a SMILES comes first, the peptide text is derived from it. Side-chain parts run from the residue outwards.
Columns and labels:
Staphylococcus aureus [1] = test: Antibacterial activity against Staphylococcus aureus ATCC 25923 assessed as inhibition of bacterial growth incubated for 20 hrs by broth microdilution method; assay type: functional
Bacillus subtilis = test: Antibacterial activity against Bacillus subtilis ATCC 23857 assessed as inhibition of bacterial growth incubated for 20 hrs by broth microdilution method; assay type: functional
Acinetobacter baumannii = test: Antibacterial activity against Acinetobacter baumannii ATCC 19606 assessed as inhibition of bacterial growth incubated for 20 hrs by broth microdilution method; assay type: functional
Klebsiella pneumoniae = test: Antibacterial activity against Klebsiella pneumoniae ATCC 700603 assessed as inhibition of bacterial growth incubated for 20 hrs by broth microdilution method; assay type: functional
Escherichia coli [2] = test: Antibacterial activity against Escherichia coli ATCC 25922 assessed as inhibition of bacterial growth incubated for 20 hrs by broth microdilution method; assay type: functional
Pseudomonas aeruginosa = test: Antibacterial activity against Pseudomonas aeruginosa ATCC 27853 assessed as inhibition of bacterial growth incubated for 20 hrs by broth microdilution method; assay type: functional
Escherichia coli [3] = test: Resistant development in Escherichia coli assessed as increase in MIC at sub-MIC measured after 20 passages; assay type: functional, organism-based
Erythrocyte = test: Hemolytic activity in mouse erythrocytes assessed as 10% hemolysis incubated for 1 hr by absorbance based analysis; assay type: toxicity, cell-based
[4] = Cytotoxicity against HEK293T cells assessed as cell death measured after 1 hr by resazurin dye based analysis; assay type: toxicity, HEK-293T; settings: human, HEK293T cells
Escherichia coli [5] = test: Antibacterial activity against Escherichia coli ATCC 25922 assessed as inhibition of bacterial growth incubated for 20 hrs in presence of NaCl by broth microdilution method (reference value: 16 microM); assay type: functional
Escherichia coli [6] = test: Antibacterial activity against Escherichia coli ATCC 25922 assessed as inhibition of bacterial growth incubated for 20 hrs in presence of KCl by broth microdilution method (reference value: 16 microM); assay type: functional
Escherichia coli [7] = test: Antibacterial activity against Escherichia coli ATCC 25922 assessed as inhibition of bacterial growth incubated for 20 hrs in presence of MgCl2 by broth microdilution method (reference value: 16 microM); assay type: functional
Escherichia coli [8] = test: Antibacterial activity against Escherichia coli ATCC 25922 assessed as inhibition of bacterial growth incubated for 20 hrs in presence of FeCl3 by broth microdilution method (reference value: 16 microM); assay type: functional
Escherichia coli [9] = test: Antibacterial activity against Escherichia coli ATCC 25922 assessed as inhibition of bacterial growth incubated for 20 hrs in presence of ZnCl2 by broth microdilution method (reference value: 16 microM); assay type: functional
Staphylococcus aureus [10] = test: Antibacterial activity against Staphylococcus aureus ATCC 25923 assessed as inhibition of bacterial growth incubated for 20 hrs in presence of NaCl by broth microdilution method (reference value: 8 microM); assay type: functional
Staphylococcus aureus [11] = test: Antibacterial activity against Staphylococcus aureus ATCC 25923 assessed as inhibition of bacterial growth incubated for 20 hrs in presence of KCl by broth microdilution method (reference value: 8 microM); assay type: functional
Staphylococcus aureus [12] = test: Antibacterial activity against Staphylococcus aureus ATCC 25923 assessed as inhibition of bacterial growth incubated for 20 hrs in presence of MgCl2 by broth microdilution method (reference value: 8 microM); assay type: functional
Staphylococcus aureus [13] = test: Antibacterial activity against Staphylococcus aureus ATCC 25923 assessed as inhibition of bacterial growth incubated for 20 hrs in presence of FeCl3 by broth microdilution method (reference value: 8 microM); assay type: functional
Staphylococcus aureus [14] = test: Antibacterial activity against Staphylococcus aureus ATCC 25923 assessed as inhibition of bacterial growth incubated for 20 hrs in presence of ZnCl2 by broth microdilution method (reference value: 8 microM); assay type: functional
Staphylococcus aureus [15] = test: Antibacterial activity against Staphylococcus aureus ATCC 25923 assessed as inhibition of bacterial growth by measuring fold increase in MIC incubated for 20 hrs in presence of NaCl by broth microdilution method relative to control; assay type: functional
Staphylococcus aureus [16] = test: Antibacterial activity against Staphylococcus aureus ATCC 25923 assessed as inhibition of bacterial growth by measuring fold increase in MIC incubated for 20 hrs in presence of KCl by broth microdilution method relative to control; assay type: functional
Staphylococcus aureus [17] = test: Antibacterial activity against Staphylococcus aureus ATCC 25923 assessed as inhibition of bacterial growth by measuring fold increase in MIC incubated for 20 hrs in presence of MgCl2 by broth microdilution method relative to control; assay type: functional
Staphylococcus aureus [18] = test: Antibacterial activity against Staphylococcus aureus ATCC 25923 assessed as inhibition of bacterial growth by measuring fold increase in MIC incubated for 20 hrs in presence of FeCl3 by broth microdilution method relative to control; assay type: functional
Staphylococcus aureus [19] = test: Antibacterial activity against Staphylococcus aureus ATCC 25923 assessed as inhibition of bacterial growth by measuring fold increase in MIC incubated for 20 hrs in presence of ZnCl2 by broth microdilution method relative to control; assay type: functional
Escherichia coli [20] = test: Antibacterial activity against Escherichia coli ATCC 25922 assessed as inhibition of bacterial growth preincubated with 10% mouse serum for 1 hr and measured after 20 hrs by broth microdilution method; assay type: functional; settings: time 21 hrs
Escherichia coli [21] = test: Antibacterial activity against Escherichia coli ATCC 25922 assessed as inhibition of bacterial growth preincubated with 10% mouse serum for 6 hrs and measured after 20 hrs by broth microdilution method; assay type: functional; settings: time 26 hrs
[22] = Therapeutic index, ratio of MHC10 for hemolytic activity in mouse erythrocytes preincubated with 10% mouse serum for 1 hr to MIC for Escherichia coli ATCC 25922 preincubated with 10% mouse serum for 1 hr; assay type: toxicity, cell-based; settings: mouse erythrocytes, read-out: TI
[23] = Therapeutic index, ratio of MHC10 for hemolytic activity in mouse erythrocytes preincubated with 10% mouse serum for 6 hrs to MIC for Escherichia coli ATCC 25922 preincubated with 10% mouse serum for 6 hrs; assay type: toxicity, cell-based; settings: mouse erythrocytes, read-out: TI
Staphylococcus aureus [24] = test: Antibacterial activity against Staphylococcus aureus ATCC 25923 assessed as inhibition of bacterial growth preincubated with 10% mouse serum for 1 hr and measured after 20 hrs by broth microdilution method; assay type: functional; settings: time 21 hrs
Staphylococcus aureus [25] = test: Antibacterial activity against Staphylococcus aureus ATCC 25923 assessed as inhibition of bacterial growth preincubated with 10% mouse serum for 6 hrs and measured after 20 hrs by broth microdilution method; assay type: functional; settings: time 21 hrs
[26] = Therapeutic index, ratio of MHC10 for hemolytic activity in mouse erythrocytes preincubated with 10% mouse serum for 1 hr to MIC for Staphylococcus aureus ATCC 25923 preincubated with 10% mouse serum for 1 hr; assay type: toxicity, cell-based; settings: mouse erythrocytes, read-out: TI
[27] = Therapeutic index, ratio of MHC10 for hemolytic activity in mouse erythrocytes preincubated with 10% mouse serum for 6 hrs to MIC for Staphylococcus aureus ATCC 25923 preincubated with 10% mouse serum for 6 hrs; assay type: toxicity, cell-based; settings: mouse erythrocytes, read-out: TI
[28] = Hemolytic activity in mouse erythrocytes at 256 uM preincubated for 1 to 6 hr with 10% mouse serum and measured after 1 hr by absorbance based analysis; assay type: toxicity, cell-based, Erythrocyte; settings: time 1-7 hrs, read-out: Activity
[29] = Stability in mouse serum assessed as half life at 10 mM measured upto 24 hrs by RP-HPLC analysis; assay type: ADME, cell-free

Compound: CO[C@H]1/C=C/O[C@@]2(C)Oc3c(C)c(O)c4c(O)c(c(/C=N/N5CCN(C)CC5)c(O)c4c3C2=O)NC(=O)/C(C)=C\C=C\[C@H](C)[C@H](O)[C@@H](C)[C@@H](O)[C@@H](C)[C@H](OC(C)=O)[C@@H]1C [RIFAMPIN]
- MIC (Staphylococcus aureus [1]): < 1 µM
- MIC (Bacillus subtilis): < 1 µM
- MIC (Acinetobacter baumannii): < 1 µM
- MIC (Klebsiella pneumoniae): 32 µM (≈ 26.3 µg/mL)
- MIC (Escherichia coli [2]): 4 µM (≈ 3.29 µg/mL)
- MIC (Pseudomonas aeruginosa): 32 µM (≈ 26.3 µg/mL)
- Activity (Escherichia coli [3]): Active

- MIC (Staphylococcus aureus [1]): 8 µM
- MIC (Bacillus subtilis): 8 µM
- MIC (Acinetobacter baumannii): 32 µM
- MIC (Klebsiella pneumoniae): 64 µM
- MIC (Escherichia coli [2]): 32 µM
- MIC (Pseudomonas aeruginosa): 8 µM
- MIC (Escherichia coli [5]): 32 µM
- MIC (Escherichia coli [6]): 8 µM
- MIC (Escherichia coli [7]): 8 µM
- MIC (Escherichia coli [8]): 16 µM
- MIC (Escherichia coli [9]): 16 µM
- MIC (Staphylococcus aureus [10]): 8 µM
- MIC (Staphylococcus aureus [11]): 8 µM
- MIC (Staphylococcus aureus [12]): 8 µM
- MIC (Staphylococcus aureus [13]): 8 µM
- MIC (Staphylococcus aureus [14]): 8 µM
- MIC (Escherichia coli [20]): 2 µM
- MIC (Escherichia coli [21]): 8 µM
- MIC (Staphylococcus aureus [24]): 2 µM
- MIC (Staphylococcus aureus [25]): 8 µM
- half-life at 10000 µM [29]: 1.42 h
Compound: H-WWWWKRRRR-NH2
- MHC10 (Erythrocyte): > 256 µM
- CC50 at 1 h [4]: > 128 µM
- fold change (FC) (Staphylococcus aureus [15]): <=2
- fold change (FC) (Staphylococcus aureus [16]): <=2
- fold change (FC) (Staphylococcus aureus [17]): <=2
- fold change (FC) (Staphylococcus aureus [18]): <=2
- fold change (FC) (Staphylococcus aureus [19]): <=2
- selectivity ratio [22]: 0.5
- selectivity ratio [23]: 0.13
- selectivity ratio [26]: 0.5
- selectivity ratio [27]: 0.13
- hemolysis at 1 h, 256 µM [28]: < 10%

- MIC (Staphylococcus aureus [1]): 8 µM (≈ 13.4 µg/mL)
- MIC (Bacillus subtilis): 8 µM (≈ 13.4 µg/mL)
- MIC (Acinetobacter baumannii): 32 µM (≈ 53.5 µg/mL)
- MIC (Klebsiella pneumoniae): 64 µM (≈ 107 µg/mL)
- MIC (Escherichia coli [2]): 8 µM (≈ 13.4 µg/mL)
- MIC (Pseudomonas aeruginosa): 32 µM (≈ 53.5 µg/mL)
Compound: N=C(N)NCCC[C@H](NC(=O)[C@H](CCCNC(=N)N)NC(=O)[C@H](CCCNC(=N)N)NC(=O)[C@H](CCCNC(=N)N)NC(=O)[C@H](CCCNC(=N)N)NC(=O)[C@H](CCCCNC(=O)[C@H](Cc1c[nH]c2ccccc12)NC(=O)[C@@H](N)Cc1c[nH]c2ccccc12)NC(=O)[C@H](Cc1c[nH]c2ccccc12)NC(=O)[C@@H](N)Cc1c[nH]c2ccccc12)C(N)=O (H-WWK([Trp-Trp])RRRRR-NH2)
- MHC10 (Erythrocyte): > 256 µM
- CC50 at 1 h [4]: > 128 µM

- MIC (Staphylococcus aureus [1]): 32 µM (≈ 70.4 µg/mL)
- MIC (Bacillus subtilis): 16 µM (≈ 35.2 µg/mL)
- MIC (Acinetobacter baumannii): 32 µM (≈ 70.4 µg/mL)
- MIC (Klebsiella pneumoniae): 32 µM (≈ 70.4 µg/mL)
- MIC (Escherichia coli [2]): 32 µM (≈ 70.4 µg/mL)
- MIC (Pseudomonas aeruginosa): 32 µM (≈ 70.4 µg/mL)
Compound: N=C(N)NCCC[C@H](NC(=O)[C@H](CCCNC(=N)N)NC(=O)[C@@H](N)CCCNC(=N)N)C(=O)NCCCC[C@H](NC(=O)[C@H](CCCNC(=N)N)NC(=O)[C@H](CCCNC(=N)N)NC(=O)[C@@H](N)CCCNC(=N)N)C(=O)N[C@@H](Cc1c[nH]c2ccccc12)C(=O)N[C@@H](Cc1c[nH]c2ccccc12)C(=O)N[C@@H](Cc1c[nH]c2ccccc12)C(=O)N[C@@H](Cc1c[nH]c2ccccc12)C(=O)N[C@@H](Cc1c[nH]c2ccccc12)C(=O)N[C@@H](Cc1c[nH]c2ccccc12)C(N)=O (H-RRRK([Arg-Arg-Arg])WWWWWW-NH2)
- MHC10 (Erythrocyte): 22.12 µM
- CC50 at 1 h [4]: 34 µM

- MIC (Staphylococcus aureus [1]): > 128 µM
- MIC (Bacillus subtilis): > 128 µM
- MIC (Acinetobacter baumannii): > 128 µM
- MIC (Klebsiella pneumoniae): > 128 µM
- MIC (Escherichia coli [2]): > 128 µM
- MIC (Pseudomonas aeruginosa): > 128 µM
Compound: N=C(N)NCCC[C@H](NC(=O)[C@H](CCCCN)NC(=O)[C@H](Cc1c[nH]c2ccccc12)NC(=O)[C@@H](N)Cc1c[nH]c2ccccc12)C(N)=O (H-WWKR-NH2)
- MHC10 (Erythrocyte): > 256 µM
- CC50 at 1 h [4]: > 128 µM
